pIC50: −log10 of the molar value. Converted amounts (≈) assume the structure as drawn.
System: J774 macrophages
Experiment: Alamar Blue macrophage J774 viability assay
Format: cell-based
Details: J774 cells, 72 hours with compound, Alamar Blue readout
Method: (§1) Initial screening of candidate compounds was performed using in vitro assays to determine potency, metabolic stability and solubility in biologically relevant fluids. Potency was assessed using a viability assay based on the survival of the J774 macrophage cell line. Macrophages are closely related to osteoclasts and have been used previously as a model system for osteoclast survival (see, e.g., Luckman et al., 1998). Like osteoclasts, J774 macrophages are dependent on continued NFκB activation for survival, thereby providing a valuable screen for compounds with anti-inflammatory activity. Metabolic stability was measured by determining the rate of disappearance of compound in the presence of human liver microsomal preparations, as quantified by LC-MS/MS. Solubility was measured by equilibration of the compound in fasted state simulated intestinal fluid (FaSSIF) and quantified by HPLC.
In vitro potency as anti-inflammatory agents was determined for a number of APSAC compounds by incubation with J774 macrophages and subsequent determination of cell viability.
J774 cells were plated at 10^4 cells per well in 100 μL αMEM (α Modified Eagle Medium) in 96-well plates and grown overnight. The next day, test compounds were added to the cultures, and cultures were continued for another 72 hours. At the end of the culture period, cell survival was determined using an Alamar Blue assay as previously described (see, e.g., Nociari et al., 1998).
Alamar Blue is an oxidation-reduction sensitive indicator. The dye itself is in the oxidised state, which is blue and non-fluorescent. The dye can accept electrons from reducing species, such as NADPH and FADH, to form a reduced dye species, which is red and fluorescent. Thus the transformation from oxidised form to reduced form can be measured by fluorimetric or colourimetric means. For fluorescence measurements, 530-560 nm excitation and 590 nm emission wavelengths are typically used. For colourimetric measurements, absorbance at 570 nm (reduced form) and 600 nm (oxidised form) is typically measured. A simple calculation is performed to determine the relative quantities of the two species.
A high ratio of the reducing species, NADPH and FADH, to the corresponding oxidised species, NADP and FAD, is an indicator that cells are proliferating and viable. A low ratio indicates cells that are quiescent or non-viable.
Briefly, Alamar Blue (Biosource International) was added undiluted to the each well (1:10 v/v, 10 μL). The plate was incubated at 37° C. for 3-4 hours and the fluorescence was measured at 590 nm, with a 25 nm bandwidth. A high reading indicated cells with normal viability, and a low reading indicated cells that have been damaged and are no longer proliferating normally. The controls gave a high fluorescence reading, indicating a high number of live, healthy cells. A potent test compound gave a low fluorescence reading. The average results for each test compound (n=5) were expressed as a percent (%) of the average control value.
Addition of Compounds. All of the compounds studied were made up as 100 mM solutions in DMSO. These stock solutions were then diluted 1000-10000× in culture medium (αMEM). From these 100 μM or 10 μM solutions, convenient quantities (3-33 μL) were added directly to the wells so as to give the desired final compound concentration.

Structure (SMILES)	IC50
O=S(=O)(N[C@H]1CC[C@H](O)CC1)c1ccc(-c2cncnc2)cc1 [ABD861, N-(trans-4-Hydroxycyclohexyl)-4-(pyrimidin-5-yl)benzenesulfonamide]	Inactive

Same assay, conditions: J774 cells, 72 hours with compound, Alamar Blue readout; read-out: IC50

Structure (SMILES)	pIC50
O=S(=O)(Nc1cccc(CO)c1)c1ccc(-c2ccc(Cl)cc2F)cc1 [ABD575, reference compound]	6.40

Same assay, conditions: Mus musculus; J774 cells, 72 hours with compound, Alamar Blue readout; read-out: IC50

Structure (SMILES)	pIC50
O=S(=O)(Nc1cccc(CO)c1)c1ccc(-c2ccc(F)cc2F)cc1 [ABD456, 2′,4′-difluoro-biphenyl-4-sulfonic acid (3-hydroxymethyl-phenyl)-amide, reference compound]	6.60
O=S(=O)(Nc1ccc(CO)cc1)c1ccc(-c2ccc(F)cc2F)cc1 [ABD466, 2′,4′-difluoro-biphenyl-4-sulfonic acid (4-hydroxymethyl-phenyl)-amide, reference compound]	5.52
O=S(=O)(N[C@H]1CC[C@H](O)CC1)c1ccc(-c2ccc(OC(F)(F)F)cc2)c(F)c1 [ABD665, 2-Fluoro-N-(trans-4-hydroxycyclohexyl)-4′-(trifluoromethoxy)biphenyl-4-sulfonamide]	5.31
O=S(=O)(N[C@H]1CC[C@H](O)CC1)c1ccc(-c2ccc(F)cc2F)cc1Cl [ABD705, 3-Chloro-2′,4′-difluoro-N-(trans-4-hydroxycyclohexyl)biphenyl-4-sulfonamide]	6.08
COc1ccc(-c2ccc(S(=O)(=O)N[C@H]3CC[C@H](O)CC3)cc2F)cc1 [ABD710, 2-Fluoro-N-(trans-4-hydroxycyclohexyl)-4′-methoxybiphenyl-4-sulfonamide]	5.70
O=S(=O)(N[C@H]1CC[C@H](O)CC1)c1ccc(-c2ccc(Cl)c(C(F)(F)F)c2)cc1 [ABD712, 4′-Chloro-N-(trans-4-hydroxycyclohexyl)-3′-(trifluoromethyl)biphenyl-4-sulfonamide]	5.26
N#Cc1ccc(-c2ccc(S(=O)(=O)N[C@H]3CC[C@H](O)CC3)c(Cl)c2)cc1 [ABD732, 3-Chloro-4′-cyano-N-(trans-4-hydroxycyclohexyl)biphenyl-4-sulfonamide]	5.36
Cc1cc(S(=O)(=O)N[C@H]2CC[C@H](O)CC2)ccc1-c1ccc(F)cc1F [ABD735, 2′,4′-Difluoro-N-(trans-4-hydroxycyclohexyl)-2-methylbiphenyl-4-sulfonamide]	7.05
Cc1cc(S(=O)(=O)N[C@H]2CC[C@H](O)CC2)ccc1-c1ccc(OC(F)(F)F)cc1 [ABD742, N-(trans-4-Hydroxycyclohexyl)-2-methyl-4′-(trifluoromethoxy)biphenyl-4-sulfonamide]	6.11
O=S(=O)(N[C@H]1CC[C@H](O)CC1)c1ccc(-c2ccc(Cl)cc2Cl)cc1OC(F)(F)F [ABD756, 2′,4′-Dichloro-N-(trans-4-hydroxycyclohexyl)-3-(trifluoromethoxy)biphenyl-4-sulfonamide]	5.66
CNC1CCC(NS(=O)(=O)c2ccc(-c3ccc(F)cc3F)cc2)CC1 (centres unmarked) [ABD816, 2′,4′-Difluoro-N-(4-(methylamino)cyclohexyl)biphenyl-4-sulfonamide]	6.10
CCNC1CCC(NS(=O)(=O)c2ccc(-c3ccc(F)cc3F)cc2)CC1 (centres unmarked) [ABD817, N-(4-(Ethylamino)cyclohexyl)-2′,4′-difluorobiphenyl-4-sulfonamide]	> 6.00
CCN(CC)C1CCC(NS(=O)(=O)c2ccc(-c3ccc(F)cc3F)cc2)CC1 (centres unmarked) [ABD819, N-(4-(Diethylamino)cyclohexyl)-2′,4′-difluorobiphenyl-4-sulfonamide]	5.62
O=S(=O)(NC1CCC(N2CCCC2)CC1)c1ccc(-c2ccc(F)cc2F)cc1 (centres unmarked) [ABD820, 2′,4′-Difluoro-N-(4-(pyrrolidin-1-yl)cyclohexyl)biphenyl-4-sulfonamide]	5.60
O=S(=O)(NC1CCC(N2CCOCC2)CC1)c1ccc(-c2ccc(F)cc2F)cc1 (centres unmarked) [ABD821, 2′,4′-Difluoro-N-(4-morpholinocyclohexyl)biphenyl-4-sulfonamide]	< 5.00
CCN(C)C1CCC(NS(=O)(=O)c2ccc(-c3ccc(F)cc3F)cc2)CC1 (centres unmarked) [ABD822, N-(4-(Ethyl(methyl)amino)cyclohexyl)-2′,4′-difluorobiphenyl-4-sulfonamide]	5.16
CNC[C@H]1CC[C@@H](NS(=O)(=O)c2ccc(-c3ccc(F)cc3F)cc2)CC1 [ABD824, 2′,4′-Difluoro-N-(cis-4-((methylamino)methyl)cyclohexyl)biphenyl-4-sulfonamide]	5.14
CN(C)C[C@H]1CC[C@@H](NS(=O)(=O)c2ccc(-c3ccc(F)cc3F)cc2)CC1 [ABD826, N-(cis-4-((Dimethylamino)methyl)cyclohexyl)-2′,4′-difluorobiphenyl-4-sulfonamide]	6.00
O=S(=O)(N[C@H]1CC[C@H](O)CC1)c1ccc(-c2ncc(Cl)cc2Cl)cc1 [ABD836, 4-(3,5-Dichloropyridin-2-yl)-N-(trans-4-hydroxycyclohexyl) benzene sulfonamide]	6.55
O=S(=O)(N[C@H]1CC[C@H](O)CC1)c1ccc(-c2ncc(Cl)cn2)cc1 [ABD837, 4-(5-Chloropyrimidin-2-yl)-N-(trans-4-hydroxycyclohexyl)benzenesulfonamide]	5.05
O=S(=O)(N[C@H]1CC[C@@H](NCC(F)(F)F)CC1)c1ccc(-c2ccc(F)cc2F)cc1 [ABD864, 2′,4′-Difluoro-N-(cis-4-(2,2,2-trifluoroethylamino)cyclohexyl)biphenyl-4-sulfonamide]	< 5.00
O=S(=O)(N[C@H]1CC[C@H](NCC(F)(F)F)CC1)c1ccc(-c2ccc(F)cc2F)cc1 [ABD865, 2′,4′-Difluoro-N-(trans-4-(2,2,2-trifluoroethylamino)cyclohexyl)biphenyl-4-sulfonamide]	5.23

System: not listed separately
Experiment: Thermodynamic aqueous solubility in fasted state simulated intestinal fluid (FaSSIF)
Format: physicochemical
Details: equilibrated at 25° C. for 24 hours, HPLC
Method: as §1, with “Macrophages are closely related to osteoclasts and have been used previously as a model system for osteoclast survival (see, e.g., Luckman et al., 1998).” left out
Thermodynamic aqueous solubility was measured by equilibration of a number of APSAC compounds, in the solid state, with fasted state simulated intestinal fluid (FaSSIF) and quantified by HPLC. Measurement of solubility in FaSSIF provides a valuable model for the prediction of drug dissolution following oral administration.
The pH was adjusted to 6.5 using 1 M NaOH solution.
0.6 mL of a solution containing 100 mg/mL lecithin in methylene chloride was added. The methylene chloride was eliminated under vacuum at about 40° C. The vacuum was drawn for 15 minutes at 250 mbar, followed by 15 minutes at 100 mbar. […] After cooling to room temperature, the solution was then adjusted to 100 mL with blank FaSSIF.
The suspension was equilibrated at 25° C. for 24 hours, and then the pH was measured. The suspension was then filtered through a glass fibre C filter into a 96-well plate. The filtrate was then diluted by a factor of 100. Quantification was made by HPLC with reference to a standard solution of compound at approximately 0.1 mg/mL in DMSO. Different volumes of the standard, diluted and undiluted sample solutions were injected. […] Analysis was performed on an Agilent HP1100 series system equipped with a diode array detector and using ChemStation software vB.02.01-SR1.

Structure (SMILES)	Solubility [µg/mL]
O=S(=O)(Nc1cccc(CO)c1)c1ccc(-c2ccc(F)cc2F)cc1 [ABD456, 2′,4′-difluoro-biphenyl-4-sulfonic acid (3-hydroxymethyl-phenyl)-amide, reference compound]	40 (≈ 107 µM)
O=S(=O)(Nc1cccc(CO)c1)c1ccc(-c2ccc(Cl)cc2F)cc1 [ABD575, reference compound]	70 (≈ 179 µM)
